Source: patent US4520022A, “Substituted vinyl cephalosporins” (priority 1983, dated 1985)
Values after ≈ are worked out from the molar mass of the structure shown. Where two headings read alike, the source gives them in different places.

Key:
[1] = tested on: P. anaerobius A21905; experiment: In vitro activity against anaerobes (MIC), P. anaerobius; assay type: cell-based; conditions: Peptostreptococcus anaerobius, A21905
[2] = tested on: H. influenza A9729; experiment: Protective dose PD50, mice infected with lethal inoculum, oral treatment, H. influenza A9729; assay type: in vivo; conditions: Mus musculus, 120 h
Excerpt: The structure activity correlations drawn from the foregoing in vitro studies are born out by the results of in vivo studies in mice. Table 4 is a tabulation of the protective doses for mice infected with a lethal inoculum of a bacteria. Two different bacteria were employed in the studies, one a Gram+ organism and the other a Gram- organism. The protective dose (PD50) is that dose which when administered to a group of infected mice results in 50% survival after five days. Normally untreated infected mice die within three days following injection of the lethal inoculum.
Protective Dose PD50 for Mice Infected with Lethal Inoculum

[3] = tested on: H. influenzae; experiment: In vitro activity against Haemophilis (MIC), H. influenzae; assay type: cell-based; conditions: Haemophilus influenzae, Compound 9 lot 2
[4] = tested on: P. acnes A21933; experiment: In vitro activity against anaerobes (MIC), P. acnes; assay type: cell-based; conditions: Cutibacterium acnes, A21933
[5] = tested on: S. pyogenes A20201; experiment: Protective dose PD50, mice infected with lethal inoculum, oral treatment, S. pyogenes A20201; assay type: in vivo; conditions: Streptococcus pyogenes, 120 h
[6] = tested on: C. difficile A21675; experiment: In vitro activity against anaerobes (MIC), C. difficile; assay type: cell-based; conditions: Clostridioides difficile, A21675
[7] = tested on: N. meningitidis; experiment: In vitro activity against Neisseria (MIC), N. meningitidis; assay type: cell-based
[8] = tested on: N. gonorrheae; experiment: In vitro activity against Neisseria (MIC), N. gonorrheae; assay type: cell-based
[9] = tested on: S. aureus BX-1633; experiment: Protective dose PD50, mice infected with lethal inoculum, oral treatment, S. aureus BX-1633; assay type: in vivo; conditions: Staphylococcus aureus, BX1633, 120 h
[10] = tested on: S. pyogenes; experiment: In vitro activity against Streptococci (MIC), S. pyogenes; assay type: cell-based
[11] = tested on: S. pneumoniae; experiment: In vitro activity against Streptococci (MIC), S. pneumoniae; assay type: cell-based; conditions: Streptococcus pneumoniae
[12] = tested on: B. fragilis; experiment: In vitro activity against anaerobes (MIC), B. fragilis; assay type: cell-based; conditions: Bacteroides fragilis
[13] = tested on: P. mirabilis A9554; experiment: Protective dose PD50, mice infected with lethal inoculum, oral treatment, P. mirabilis A9554; assay type: in vivo

## N[C@@H](C(=O)N[C@@H]1C(=O)N2C(C(=O)O)=C(Cl)CS[C@H]12)c1ccccc1 [Cefaclor]
[1]
  MIC: 0.4 µg/mL (≈ 1.09 µM)
[2]
  ED50: 1.6 mg/kg
[3]; H. influenzae A9729
  MIC: 0.8 µg/mL (≈ 2.18 µM)
[3]; H. influenzae A9833
  MIC: 0.8 µg/mL (≈ 2.18 µM)
[3]; H. influenzae A20177
  MIC: 0.8 µg/mL (≈ 2.18 µM)
[3]; H. influenzae A20193
  MIC: 0.8 µg/mL (≈ 2.18 µM)
[3]; H. influenzae A21523
  MIC: 0.8 µg/mL (≈ 2.18 µM)
[3]; H. influenzae A22482
  MIC: 0.4 µg/mL (≈ 1.09 µM)
[3]; H. influenzae A22483
  MIC: 0.4 µg/mL (≈ 1.09 µM)
[3]; read-out: MIC, Geometric Mean, H. influenzae, seven strains above
  MIC: 0.66 µg/mL (≈ 1.79 µM)
[4]
  MIC: 0.8 µg/mL (≈ 2.18 µM)
[5]
  ED50: 0.14 mg/kg
[6]
  MIC: 25 µg/mL (≈ 68 µM)
[7]; N. meningitidis A20049
  MIC: 0.8 µg/mL (≈ 2.18 µM)
[7]; N. meningitidis A21487, Compound 9 lot 2
  MIC: 0.8 µg/mL (≈ 2.18 µM)
[7]; N. meningitidis A21496, Compound 9 lot 2
  MIC: 0.8 µg/mL (≈ 2.18 µM)
[7]; N. meningitidis A21497, Compound 9 lot 2
  MIC: 0.8 µg/mL (≈ 2.18 µM)
[7]; Neisseria meningitidis
  MIC: 0.8 µg/mL (≈ 2.18 µM)
[7]; Neisseria meningitidis, read-out: MIC, Geometric Mean
  MIC: 0.8 µg/mL (≈ 2.18 µM)
[8]
  MIC: 0.8 µg/mL (≈ 2.18 µM)
[8]; N. gonorrheae A20143, Compound 9 lot 2
  MIC: 0.8 µg/mL (≈ 2.18 µM)
[8]; N. gonorrheae A20154, Compound 9 lot 2
  MIC: 0.8 µg/mL (≈ 2.18 µM)
[8]; N. gonorrheae A20155, Compound 9 lot 2
  MIC: 0.8 µg/mL (≈ 2.18 µM)
[8]; read-out: MIC, Geometric Mean
  MIC: 0.8 µg/mL (≈ 2.18 µM)
[9]
  ED50: 2.2 mg/kg
[10]; S. pyogenes A9604, Compound 9 lot 2
  MIC: 0.2 µg/mL (≈ 0.544 µM)
[10]; S. pyogenes A15040, Compound 9 lot 2
  MIC: 0.2 µg/mL (≈ 0.544 µM)
[10]; S. pyogenes A20065, Compound 9 lot 2
  MIC: 0.2 µg/mL (≈ 0.544 µM)
[10]; S. pyogenes Dick, Compound 9 lot 2
  MIC: 0.2 µg/mL (≈ 0.544 µM)
[10]; Streptococcus pyogenes
  MIC: 0.2 µg/mL (≈ 0.544 µM)
[10]; Streptococcus pyogenes, read-out: MIC, Geometric Mean
  MIC: 0.2 µg/mL (≈ 0.544 µM)
[11]
  MIC: 0.8 µg/mL (≈ 2.18 µM)
[11]; read-out: MIC, Geometric Mean
  MIC: 1.3 µg/mL (≈ 3.53 µM)
[12]; B. fragilis A20928-1, β-lactamase (-)
  MIC: 3.1 µg/mL (≈ 8.43 µM)
[12]; B. fragilis A20935, β-lactamase (-)
  MIC: 3.1 µg/mL (≈ 8.43 µM)
[12]; B. fragilis A22021, β-lactamase (+)
  MIC: > 100 µg/mL
[12]; B. fragilis A22053, β-lactamase (+)
  MIC: 100 µg/mL (≈ 272 µM)
[12]; B. fragilis A22533, β-lactamase (+)
  MIC: > 100 µg/mL
[12]; B. fragilis A22693, β-lactamase (+)
  MIC: > 100 µg/mL
[12]; B. fragilis A22695, β-lactamase (+)
  MIC: 100 µg/mL (≈ 272 µM)
[12]; read-out: MIC, Geometric Mean, B. fragilis A20928-1, A21900, A20935, β-lactamase (-)
  MIC: 3.9 µg/mL (≈ 10.6 µM)
[12]; read-out: MIC, Geometric Mean, B. fragilis A22053, A22021, A22693, β-lactamase (+)
  MIC: > 100 µg/mL
[12]; read-out: MIC, Geometric Mean, B. fragilis A22695, A22533, β-lactamase (+)
  MIC: > 100 µg/mL
[13]
  Protective Dose PD50: 1.8
